Measured values: patent publication US20200163984A1, “USE OF ISOVALERYL SPIRAMYCIN I, II AND/OR III IN MANUFACTURING MEDICAMENT FOR TREATING AND/OR PREVENTING TUMOR, AND MEDICAMENT” (SHENYANG FUYANG PHARMACEUTICAL TECHNOLOGY CO., LTD., priority 2017, published 2020)
Values after ≈ are worked out from the molar mass of the structure shown.

Columns and labels:
[1] = system: transplanted tumor of human bladder cancer cell T-24; experiment: T-24 transplanted tumor in nude mice; settings: for Tumor Volume (mm3) (d30): d 30
Method: Then cell concentration was adjusted to 1×10^7/ml with matrigel, then each nude mouse was inoculated subcutaneously with 0.2 ml of cells at its right armpit and recorded as the first day of inoculation. When the tumor grows to be greater than or equal to 100 mm^3, the mice were randomly divided into 11 groups with 6 mice in each group: isovaleryl spiramycin I groups with doses of 25, 50 and 100 mg/kg, isovaleryl spiramycin II groups with doses of 25, 50 and 100 mg/kg, and isovaleryl spiramycin III groups with doses of 25, 50 and 100 mg/kg. Each group was continuously administered intragastrically for 30 days with a dose of 20 ml/kg. The mice were sacrificed the next day after drug withdrawal and the indicators were tested. The long diameter and short diameter of the tumor, and the body weight of each mouse were recorded every 3 days from drug administration to nude mouse sacrifice.
The body weight of the nude mice and the long diameter (a) and short diameter (b) of the transplanted tumor were measured every 3 days, and the tumor volume (v), relative tumor volume (RTV) and relative tumor proliferation rate (T/C) are calculated respectively according to the following formulas, wherein V=a×b^2/2; RTV=V/V0 (V0 is the tumor volume before administration, V is the tumor volume before sacrifice), and T/C (%)=treatment group RTV/model control group RTV×100%.
Each mouse was weighed and sacrificed. After the tumor was completely stripped off from the body of the mouse, the non-tumor tissues such as blood stains and fat were removed to weigh the tumor and calculate the tumor growth inhibition rate. The average tumor weight of each group of mice is used as an indicator of efficacy. Tumor growth inhibition rate (%)=(1−the average tumor weight of the treatment group/the average tumor weight of the model group)×100%.

[2] = system: transplanted tumor of mouse H22 liver cancer; experiment: Transplanted tumor of mouse H22 liver cancer; settings: for Tumor Volume (mm3) (d30): d 30; for Body Weight (g) (d1) / Body Weight (g) (d 7): mouse, in vivo
Method: The H22 cell strains cryopreserved in liquid nitrogen were resuscitated in Kunming mice. After 3 generations, the ascites of Kunming mice were taken and placed in a 50 ml centrifuge tube in which 10 ml of 0.9% normal saline was added, and then centrifuging was performed at 1000 rpm for 5 min at room temperature, and the obtained supernatant was removed. Then 10 ml of 0.9% normal saline was added to the tube to blow and mix well, and then the mixture was diluted to 5×10^6 live cells/ml with normal saline after counting. The tube was stored in ice water, and 75% ethanol was used to disinfect the skin under the right armpits of the mice. Each Kunming mouse was soon inoculated subcutaneously with 0.2 ml of the cells at the armpit of the right forelimb.
In the H22 liver cancer model, the mice inoculated with the tumor were randomly divided into groups with 10 mice in each group on the next day of inoculation. The groups included: a model control group, a positive drug cyclophosphamide control group (CTX, 26 mg/kg), isovaleryl spiramycin I groups with doses of 13, 26 and 52 mg/kg; isovaleryl spiramycin II groups with doses of 13, 26 and 52 mg/kg; isovaleryl spiramycin III groups with doses of 13, 26 and 52 mg/kg. Each group was continuously administered intragastrically for 7 days with a dose of 20 ml/kg.
The tumor-bearing mice were weighed and sacrificed the next day after the last administration. The subcutaneous tumors were dissected and weighed. The average tumor weight of each group is calculated, and the tumor inhibition rate is calculated.
Tumor inhibition rate=(1−T/C)×100%
T: average tumor weight of the drug-administered group; C: average tumor weight of the blank control group.

[3] = system: human promyelocytic leukemia cell HL-60; settings: HL-60, MTT, 48 h
Method: (§1) The purpose of the assay is to evaluate the in vitro cell proliferation inhibition or cytotoxic activity of a tested sample.
(§2) U937 and HL-60 were suspension cells, and cells in a logarithmic growth phase were selected and prepared into a 2×10^5/ml cell suspension by a RPMI 1640 culture medium containing 10% fetal bovine serum. And the cell suspension was inoculated in a 96-well culture plate, and each well was 50 μL and the 96-well culture plate was cultured at 37° C. and 5% CO2 for 24 hours. 50 μL of a culture medium containing different concentrations of the tested sample isovaleryl spiramycin I, isovaleryl spiramycin II, or isovaleryl spiramycin III was added in the experimental group, while a culture medium containing the same volume of solvent was added into the control group. Each group was set up with 3 parallel wells that were cultured at 37° C. and 5% CO2 for 48 h. And 10 μL of freshly prepared medium containing 5 mg/ml MTT was added into each well for continuous incubation for 4 hours at 37° C. The crystals were dissolved in 100 μL of a triple solution (SDS 10 g, 10 M HCl 0.1 mL, isobutanol 5 mL, diluted with distilled water to 100 mL), and incubated at 37° C. for 12 hours. The optical density value was measured at 492 nm with a microplate reader.
(§3) The inhibition rate of the medicament on tumor cell growth is calculated according to the following formula:
(§4) Tumor cell growth inhibition rate (%)=[A492 (negative control)−A492 (dosing group)]/A492 (negative control)×100%
(§5) And the half-inhibitory concentration (IC50) of the sample is determined therefrom.

[4] = system: human tissue lymphoma cell U937; settings: U937, MTT, 48 h
Method: as §1, §2, §3, §4, §5

[5] = T-24, high dose (100 mg/kg in method) i.g. 30 days
[6] = T-24, low dose (25 mg/kg in method) i.g. 30 days
[7] = T-24, medium dose (50 mg/kg in method) i.g. 30 days

mouse weight compared with the model group ([1]; mouse, in vivo): no significant changes | IC50 [3]: 16.52 ± 1.26 µg/mL (≈ 17.8 µM) | IC50 [4]: 10.88 ± 0.05 µg/mL (≈ 11.7 µM)
Compound: CO[C@@H]1[C@@H](O[C@@H]2O[C@H](C)[C@@H](O[C@H]3C[C@@](C)(O)[C@@H](OC(=O)CC(C)C)[C@H](C)O3)[C@H](N(C)C)[C@H]2O)[C@@H](CC=O)C[C@@H](C)[C@@H](O[C@H]2CC[C@H](N(C)C)[C@@H](C)O2)/C=C/C=C/C[C@@H](C)OC(=O)C[C@H]1O [Isovaleryl spiramycin I, isovaleryl spiramycin I]
Relative Tumor Proliferation Rate (T/C) [1, 5]: 33.95% | tumor growth inhibition rate [1, 5]: 65.84% | Relative Tumor Proliferation Rate (T/C) [1, 6]: 77.78% | tumor growth inhibition rate [1, 6]: 20.55% | tumor volume and relative tumor volume compared with the model group ([1]; T-24, low, medium and high doses, P<0.05): significantly lower | Relative Tumor Proliferation Rate (T/C) [1, 7]: 58.92% | tumor growth inhibition rate [1, 7]: 49.20% | Inhibition Rate (%) ([1]; dose 25 mg/kg): 20.55% | Relative Tumor Proliferation Rate (T/C) ([1]; dose 25 mg/kg): 77.78% | Relative Tumor Volume (RTV) ([1]; dose 25 mg/kg): 10.28 ± 1.12 | Tumor Weight ([1]; dose 25 mg/kg): 1.49 ± 0.23 g | Tumor Volume (mm3) (d 1) ([1]; dose 25 mg/kg): 139.84 ± 15.80 mm3 | Tumor Volume (mm3) (d30) ([1]; dose 25 mg/kg): 1428.71 ± 156.12 mm3 | Inhibition Rate (%) ([1]; dose 50 mg/kg): 49.20% | Relative Tumor Proliferation Rate (T/C) ([1]; dose 50 mg/kg): 58.92% | Relative Tumor Volume (RTV) ([1]; dose 50 mg/kg): 7.78 ± 1.27 | Tumor Weight ([1]; dose 50 mg/kg): 0.95 ± 0.38 g | Tumor Volume (mm3) (d 1) ([1]; dose 50 mg/kg): 131.81 ± 7.15 mm3 | Tumor Volume (mm3) (d30) ([1]; dose 50 mg/kg): 1025.16 ± 174.78 mm3 | Inhibition Rate (%) ([1]; dose 100 mg/kg): 65.84% | Relative Tumor Proliferation Rate (T/C) ([1]; dose 100 mg/kg): 33.95% | Relative Tumor Volume (RTV) ([1]; dose 100 mg/kg): 4.48 ± 0.75 | Tumor Weight ([1]; dose 100 mg/kg): 0.64 ± 0.18 g | Tumor Volume (mm3) (d 1) ([1]; dose 100 mg/kg): 134.21 ± 14.43 mm3 | Tumor Volume (mm3) (d30) ([1]; dose 100 mg/kg): 606.16 ± 136.06 mm3 | Body Weight (g) (d1) ([1]; mouse, in vivo, 25 mg/kg): 19.51 ± 0.58 g | Body Weight (g) (d30) ([1]; mouse, in vivo, 25 mg/kg): 23.89 ± 1.18 g | Body Weight (g) (d1) ([1]; mouse, in vivo, 50 mg/kg): 19.60 ± 0.70 g | Body Weight (g) (d30) ([1]; mouse, in vivo, 50 mg/kg): 25.41 ± 0.92 g | Body Weight (g) (d1) ([1]; mouse, in vivo, 100 mg/kg): 19.49 ± 0.54 g | Body Weight (g) (d30) ([1]; mouse, in vivo, 100 mg/kg): 24.6 ± 2.08 g | growth of H22 liver cancer in mice ([2]; 13, 26 and 52 mg/kg i.g. 7 days): significantly inhibit | Relative Tumor Proliferation Rate (T/C) ([2]; dose 12.5 mg/kg): 54.47 | Relative Tumor Volume (RTV) ([2]; dose 12.5 mg/kg): 5.41 ± 1.42 | Tumor Volume (mm3) (d 1) ([2]; dose 12.5 mg/kg): 120.26 ± 24.42 mm3 | Tumor Volume (mm3) (d30) ([2]; dose 12.5 mg/kg): 657.57 ± 231.56 mm3 | Inhibition Rate (%) ([2]; dose 13 mg/kg): 42.11% | Tumor ([2]; dose 13 mg/kg): 0.88 ± 0.38 g | Relative Tumor Proliferation Rate (T/C) ([2]; dose 25 mg/kg): 48.27 | Relative Tumor Volume (RTV) ([2]; dose 25 mg/kg): 4.79 ± 0.64 | Tumor Volume (mm3) (d 1) ([2]; dose 25 mg/kg): 118.32 ± 11.90 mm3 | Tumor Volume (mm3) (d30) ([2]; dose 25 mg/kg): 563.69 ± 463.08 mm3 | Inhibition Rate (%) ([2]; dose 26 mg/kg): 55.26% | Tumor ([2]; dose 26 mg/kg): 0.68 ± 0.24 g | Relative Tumor Proliferation Rate (T/C) ([2]; dose 50 mg/kg): 29.78 | Relative Tumor Volume (RTV) ([2]; dose 50 mg/kg): 2.96 ± 0.39 | Tumor Volume (mm3) (d 1) ([2]; dose 50 mg/kg): 120.68 ± 13.76 mm3 | Tumor Volume (mm3) (d30) ([2]; dose 50 mg/kg): 359.74 ± 480.81 mm3 | Inhibition Rate (%) ([2]; dose 52 mg/kg): 65.79% | Tumor ([2]; dose 52 mg/kg): 0.52 ± 0.68 g | Body Weight (g) (d1) ([2]; 13 mg/kg): 24.55 ± 1.00 g | Body Weight (g) (d 7) ([2]; 13 mg/kg): 26.23 ± 0.79 g | Body Weight (g) (d1) ([2]; 26 mg/kg): 23.83 ± 2.36 g | Body Weight (g) (d 7) ([2]; 26 mg/kg): 26.68 ± 1.85 g | Body Weight (g) (d1) ([2]; 52 mg/kg): 24.02 ± 2.83 g | Body Weight (g) (d 7) ([2]; 52 mg/kg): 27.87 ± 1.57 g
